Experiments:
F508delCFTR [1] = molecular target: T1, F508delCFTR (Homo sapiens, UniProt P13569, DEL508-508); assay: Cell Surface Expression-Horse Radish Peroxidase (CSE-HRP) assay, test compound without co-corrector; assay type: cell-based; conditions: for Emax: maximum at any tested concentration, without co-corrector; for EC50: test compound without co-corrector;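 on Emax: percent of on-plate 2 µM positive control corrector response over DMSO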
T1 construct: expressed in transfected cells; host or cells: CFBE41o- human lung-derived epithelial cells (CFBE41o-F508delCFTR-HRP), doxycycline-inducible
In short: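 CFBE41o- cells expressing F508delCFTR with HRP in the fourth exofacial loop, induced with 0.5 μg/mL doxycycline for 72 h at 37° C, then exposed to compound alone for 18-24 h at 33° C, 8-point 3-fold series from 20 μM. Surface HRP read by luminol luminescence, normalized to positive corrector control versus DMSO; EC50 from variable-slope sigmoidal fit of three replicate plates.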

F508delCFTR [2] = molecular target: T1, F508delCFTR; assay: Cell Surface Expression-Horse Radish Peroxidase (CSE-HRP) assay, test compound with co-corrector; assay type: cell-based; conditions: for Maximum % activity (with co-corrector): maximum at any tested concentration;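 on Maximum % activity (with co-corrector): percent of 2 µM positive control corrector over DMSO; co-corrector is that same compound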
In short: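 CFBE41o- cells expressing F508delCFTR with HRP in the fourth exofacial loop, induced with 0.5 μg/mL doxycycline for 72 h, then treated 18-24 h at 33° C. with compound (8 points, top 20 μM, 3-fold) plus 2 μM co-corrector. Surface HRP read by luminol luminescence; activity normalised to positive control, EC50 from variable-slope sigmoidal fit.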

[3] = normalized to positive control, with 2 μM co-corrector
[4] = normalized to on-plate positive control
[5] = CSE-HRP assay, test compound with 2 μM co-corrector
[6] = normalized to on-plate positive control, with 2 μM co-corrector

T1 sequence (P13569 with tags, fused parts or gaps DEL508-508): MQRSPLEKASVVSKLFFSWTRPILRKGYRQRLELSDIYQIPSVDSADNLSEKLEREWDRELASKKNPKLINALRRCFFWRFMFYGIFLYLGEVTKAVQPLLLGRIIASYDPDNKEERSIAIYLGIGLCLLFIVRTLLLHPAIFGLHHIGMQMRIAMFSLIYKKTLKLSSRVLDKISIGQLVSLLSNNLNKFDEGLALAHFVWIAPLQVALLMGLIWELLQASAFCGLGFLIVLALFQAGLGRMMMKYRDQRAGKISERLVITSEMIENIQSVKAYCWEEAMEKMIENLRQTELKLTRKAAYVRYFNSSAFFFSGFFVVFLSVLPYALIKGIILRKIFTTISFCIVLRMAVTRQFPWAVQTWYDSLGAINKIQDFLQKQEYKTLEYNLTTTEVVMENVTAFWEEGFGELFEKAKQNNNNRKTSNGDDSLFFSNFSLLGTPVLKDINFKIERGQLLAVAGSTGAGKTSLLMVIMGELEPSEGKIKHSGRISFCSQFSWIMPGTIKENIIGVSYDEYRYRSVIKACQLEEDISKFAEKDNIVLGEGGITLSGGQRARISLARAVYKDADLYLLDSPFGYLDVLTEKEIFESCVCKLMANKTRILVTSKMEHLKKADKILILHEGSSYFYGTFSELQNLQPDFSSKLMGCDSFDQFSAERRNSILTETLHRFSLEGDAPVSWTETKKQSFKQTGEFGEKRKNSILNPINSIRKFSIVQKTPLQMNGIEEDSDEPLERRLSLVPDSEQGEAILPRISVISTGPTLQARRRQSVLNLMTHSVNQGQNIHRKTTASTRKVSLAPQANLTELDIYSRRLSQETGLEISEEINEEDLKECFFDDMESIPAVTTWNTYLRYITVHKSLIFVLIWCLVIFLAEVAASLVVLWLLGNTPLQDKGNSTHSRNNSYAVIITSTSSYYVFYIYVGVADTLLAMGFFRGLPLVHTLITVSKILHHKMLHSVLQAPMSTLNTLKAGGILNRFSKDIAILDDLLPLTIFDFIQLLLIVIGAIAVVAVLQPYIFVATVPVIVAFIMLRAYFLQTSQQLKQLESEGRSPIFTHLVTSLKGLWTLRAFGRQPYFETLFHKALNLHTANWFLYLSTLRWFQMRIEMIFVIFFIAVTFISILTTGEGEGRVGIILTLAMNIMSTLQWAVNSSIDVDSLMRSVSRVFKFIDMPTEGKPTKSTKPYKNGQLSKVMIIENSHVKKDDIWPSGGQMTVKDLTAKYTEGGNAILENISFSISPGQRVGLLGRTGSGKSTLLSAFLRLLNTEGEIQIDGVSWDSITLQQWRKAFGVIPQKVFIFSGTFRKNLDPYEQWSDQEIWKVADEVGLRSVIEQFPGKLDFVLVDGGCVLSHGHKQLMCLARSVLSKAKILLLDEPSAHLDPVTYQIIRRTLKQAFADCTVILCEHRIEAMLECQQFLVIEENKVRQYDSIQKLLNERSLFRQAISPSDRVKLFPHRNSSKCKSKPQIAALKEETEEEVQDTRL

Structure (SMILES) | Emax (F508delCFTR [1]; normalized to positive control) [%] | EC50 (F508delCFTR [1]) [µM] | Maximum % activity (with co-corrector) (F508delCFTR [2]; [3]) | EC50 (F508delCFTR [2]; with 2 μM co-corrector) [µM] | EC50 (F508delCFTR [1]; CSE-HRP assay) [µM] | Emax (F508delCFTR [1]; [4]) [%] | EC50 (F508delCFTR [2]; [5]) [µM] | Maximum % activity (with co-corrector) (F508delCFTR [2]; [6])
CCC1(C(=O)NS(=O)(=O)N2CCCc3ccccc32)CCc2c(Cl)cccc21 (centres unmarked) [Example II-80, 4-chloro-N-(3,4-dihydroquinoline-1(2H)-sulfonyl)-1-ethyl-2,3-dihydro-1H-indene-1-carboxamide] | < 50 | ≥ 10 | + (<150) | ≥ 10 |  |  |  | 
O=C(NS(=O)(=O)c1cccc2ccccc12)C1(CO)CCc2c(Cl)cccc21 (centres unmarked) [Example II-81, 4-chloro-1-(hydroxymethyl)-N-(naphthalene-1-sulfonyl)-2,3-dihydro-1H-indene-1-carboxamide] | 50 to 150 | 3 to 10 | +++ (≥350) | < 3 |  |  |  | 
COc1cccc2c1C(C(=O)NS(=O)(=O)c1cccc3ccccc13)CCC2 (centres unmarked) [Example II-115, 8-methoxy-N-(naphthalene-1-sulfonyl)-1,2,3,4-tetrahydronaphthalene-1-carboxamide] | ≥ 150 | 3 to 10 | +++ (≥350) | < 3 |  |  |  | 
O=C(NS(=O)(=O)c1cccc2ccccc12)C1CCCc2c(Cl)ccc(O)c21 (centres unmarked) [Example II-128, 5-chloro-8-hydroxy-N-(naphthalene-1-sulfonyl)-1,2,3,4-tetrahydronaphthalene-1-carboxamide] | 50 to 150 | 3 to 10 | +++ (≥350) | 3 to 10 |  |  |  | 
O=C(NS(=O)(=O)c1cccc2ccccc12)C1(CCN2CCCC2)CCc2c(Cl)cccc21 (centres unmarked) [Example III-111, 4-chloro-N-(naphthalene-1-sulfonyl)-1-[2-(pyrrolidin-1-yl)ethyl]-2,3-dihydro-1H-indene-1-carboxamide] |  |  |  |  | ≥ 10 | < 50 | 3 to 10 | + (<150)
COCCN(C)CCC1(C(=O)NS(=O)(=O)c2cccc3ccccc23)CCc2c(Cl)cccc21 (centres unmarked) [Example III-112, 4-chloro-1-{2-[(2-methoxyethyl)(methyl)amino]ethyl}-N-(naphthalene-1-sulfonyl)-2,3-dihydro-1H-indene-1-carboxamide] |  |  |  |  | 3 to 10 | < 50 | 3 to 10 | ++ (≥150 and <350)
CCC1(C(=O)N(C)S(=O)(=O)c2cccc3ccccc23)CCc2c(Cl)cccc21 (centres unmarked) [Example III-150, 4-chloro-1-ethyl-N-methyl-N-(naphthalene-1-sulfonyl)-2,3-dihydro-1H-indene-1-carboxamide] |  |  |  |  | ≥ 10 | < 50 | ≥ 10 | + (<150)
COCC1(C(=O)NS(=O)(=O)c2cccc3ccccc23)CCc2c(Cl)cccc21 (centres unmarked) [Example III-151, 4-chloro-1-(methoxymethyl)-N-(naphthalene-1-sulfonyl)-2,3-dihydro-1H-indene-1-carboxamide] |  |  |  |  | ≥ 10 | < 50 | ≥ 10 | + (<150)
N#CCC1(C(=O)NS(=O)(=O)c2cccc3ccccc23)CCc2c(Cl)cccc21 (centres unmarked) [Example III-155, 4-chloro-1-(cyanomethyl)-N-(naphthalene-1-sulfonyl)-2,3-dihydro-1H-indene-1-carboxamide] |  |  |  |  | 3 to 10 | < 50 | 3 to 10 | ++ (≥150 and <350)
N#CC1(C(=O)NS(=O)(=O)c2cccc3ccccc23)CCCc2cccc(Cl)c21 (centres unmarked) [Example III-157, 8-chloro-1-cyano-N-(naphthalene-1-sulfonyl)-1,2,3,4-tetrahydronaphthalene-1-carboxamide] |  |  |  |  | ≥ 10 | < 50 | 3 to 10 | ++ (≥150 and <350)
CC1(C(=O)NS(=O)(=O)c2ccccc2)CCc2c(Cl)cccc21 (centres unmarked) [II-1] | 50 to 150 | 3 to 10 | +++ (≥350) | 3 to 10 |  |  |  | 
Cc1ccccc1S(=O)(=O)NC(=O)[C@@]1(C)CCc2ccc(Cl)cc21 [II-4] | < 50 | 3 to 10 | ++ (≥150 and <350) | 3 to 10 |  |  |  | 
Cc1ccccc1S(=O)(=O)NC(=O)[C@]1(C)CCc2ccc(Cl)cc21 [II-5] | < 50 | 3 to 10 | ++ (≥150 and <350) | < 3 |  |  |  | 
O=C(NS(=O)(=O)c1ccccc1Cl)C1CCc2c(Cl)cccc21 (centres unmarked) [II-6] | 50 to 150 | 3 to 10 | ++ (≥150 and <350) | 3 to 10 |  |  |  | 
Cc1ccccc1S(=O)(=O)NC(=O)C1CCCc2ccccc21 (centres unmarked) [II-7] | < 50 | 3 to 10 | ++ (≥150 and <350) | 3 to 10 |  |  |  | 
COc1cccc2c1CCCC2C(=O)NS(=O)(=O)c1ccccc1C (centres unmarked) [II-8] | 50 to 150 | 3 to 10 | ++ (≥150 and <350) | 3 to 10 |  |  |  | 
COc1ccc2c(c1OC)CCCC2C(=O)NS(=O)(=O)c1ccccc1C (centres unmarked) [II-9] | < 50 | ≥ 10 | ++ (≥150 and <350) | 3 to 10 |  |  |  | 
Cc1ccccc1S(=O)(=O)NC(=O)C1CCCc2cccc(Cl)c21 (centres unmarked) [II-10] | 50 to 150 | 3 to 10 | ++ (≥150 and <350) | 3 to 10 |  |  |  | 
Cc1ccccc1S(=O)(=O)NC(=O)C1CCc2ccccc21 (centres unmarked) [II-11] | < 50 | ≥ 10 | + (<150) | 3 to 10 |  |  |  | 
Cc1ccccc1S(=O)(=O)NC(=O)C1CCCc2cc(F)ccc21 (centres unmarked) [II-12] | < 50 | 3 to 10 | ++ (≥150 and <350) | 3 to 10 |  |  |  | 
COc1cccc2c1CCC[C@H]2C(=O)NS(=O)(=O)c1ccccc1C [II-13] | 50 to 150 | 3 to 10 | +++ (≥350) | 3 to 10 |  |  |  | 
Cc1ccccc1S(=O)(=O)NC(=O)[C@H]1CCCc2ccccc21 [II-14] | < 50 | 3 to 10 | ++ (≥150 and <350) | 3 to 10 |  |  |  | 
COc1cc2c(cc1OC)C(C(=O)NS(=O)(=O)c1ccccc1C)CCC2 (centres unmarked) [II-15] | < 50 | ≥ 10 | + (<150) | 3 to 10 |  |  |  | 
COc1cccc2c1CC(C(=O)NS(=O)(=O)c1ccccc1C)C2 (centres unmarked) [II-16] | < 50 | 3 to 10 | ++ (≥150 and <350) | 3 to 10 |  |  |  | 
Cc1ccccc1S(=O)(=O)NC(=O)[C@@H]1CCCc2ccccc21 [II-17] | < 50 | 3 to 10 | ++ (≥150 and <350) | 3 to 10 |  |  |  | 
COc1ccc2c(c1)[C@@](C)(C(=O)NS(=O)(=O)c1ccccc1C)CC2 [II-18] | < 50 | 3 to 10 | ++ (≥150 and <350) | 3 to 10 |  |  |  | 
Cc1ccccc1S(=O)(=O)NC(=O)C1(C)CCc2cccc(Cl)c21 (centres unmarked) [II-19] | 50 to 150 | 3 to 10 | ++ (≥150 and <350) | 3 to 10 |  |  |  | 
Cc1ccccc1S(=O)(=O)NC(=O)C1(C)CCc2c1ccc(F)c2F (centres unmarked) [II-20] | < 50 | 3 to 10 | ++ (≥150 and <350) | 3 to 10 |  |  |  | 
Cc1ccccc1S(=O)(=O)NC(=O)C1(C)CCc2ccccc21 (centres unmarked) [II-21] | < 50 | 3 to 10 | ++ (≥150 and <350) | 3 to 10 |  |  |  | 

— patent US20180244611A1, “Modulators of the Cystic Fibrosis Transmembrane Conductance Regulator Protein and Methods of Use” (AbbVie S.à.r.l., priority 2017, published 2018)
